Like-named read-outs stand apart in the source and are kept apart here.
How the values were obtained:
Format in all cases: cell-based
[1] = tested on: Salmonella (S. aarhus, S. muenster E1 & S. worthington); conditions: for inhibition of Salmonella, clear zone around the kibbles: coated kibbles, overnight at 30° C.; for Zone of Inhibition-Diameter, Mean / Zone of Inhibition-Diameter, REP I Plate 1 / Zone of Inhibition-Diameter, REP I Plate 2 / Zone of Inhibition-Diameter, REP II Plate 1 / Zone of Inhibition-Diameter, REP II Plate 2 / Zone of Inhibition-Diameter, REP III Plate 1 / Zone of Inhibition-Diameter, REP III Plate 2: kibble coated
Method: The kibble diffusion test has similar principles as the disk diffusion method. […] […] Efficacy of the AMI was validated by measuring how closely the Salmonella cultures grew with respect to the saturated kibbles.
Commercial canine and feline adult pet food compositions in the form of kibbles were coated with potential AMIs. […] After incubation overnight at 30° C., plates were analyzed for presence of clear zones around the kibbles.

[2] = tested on: Salmonella (S. aarhus, S. muenster E1 and S. worthington); parameters: key to Salmonella growth or inhibition (MIC test): −: negative sign means inhibition; +: positive sign denotes growth
Method: The minimum inhibitory concentration (MIC) of an antimicrobial ingredient is defined as the maximum dilution of the product that will still inhibit the growth of Salmonella. Serial dilutions (0-3%, except for oregano 0-0.3%) were made of the AMI in bacterial growth media and poured in test tubes. The test organisms (S. aarhus, S. muenster E1 and S. worthington) were then added to the dilutions of the AMI ingredients to a final concentration of 10^6 or 10^3 cfu/g, incubated overnight at 30° C., and scored for growth by turbidity or plate counts.
Minimum Inhibitory Concentration was conducted for 10^3 and 10^6 cfu/g Salmonella. Results reported as negative sign means inhibition, while positive sign denotes growth.

Salmonella = experiment: Scale up challenge testing of canine kibble with Propionic Acid at simulated process steps
Excerpt: Canine adult pet food compositions with Propionic Acid were produced. Samples were taken to simulate different steps of the process. […] Moisture target was about 20%. 2) The dryer temperature was reduced and belt speed increased. […] Moisture target was about 15%. […] Moisture target was about 8%.
Kibble with intermediate moisture (15% and 20%) was cooled to prevent condensation in the bag and not encourage mold growth.
Extruder, dryer, uncoated base and finished product samples (10 kg each) were inoculated with Salmonella 10^6 cfu/g.
Uncoated base samples were coated with topicals (palatants and fat) after inoculation (Table 10).
Samples were split and incubated in a 30, 50 or 70° C. incubator.
Samples at 70° C. were plated after 0, 15, 30 and 60 minutes.
Samples at 50° C. were plated after 0, 30, 60 and 240 minutes.
Samples at 30° C. were plated after 0, 1, 2, 3, 8 and 15 days.

[3] = 10^3 cfu/g Salmonella, antimicrobial level 0.03%
[4] = 10^3 cfu/g Salmonella, antimicrobial level 0.15%
[5] = 10^3 cfu/g Salmonella, antimicrobial level 0.3%
[6] = 10^3 cfu/g Salmonella, antimicrobial level 0.9%
[7] = 10^3 cfu/g Salmonella, antimicrobial level 1.5%
[8] = 10^3 cfu/g Salmonella, antimicrobial level 2.1%
[9] = 10^3 cfu/g Salmonella, antimicrobial level 3%
[10] = 10^3 cfu/g Salmonella, antimicrobial level […]
[11] = 10^6 cfu/g Salmonella, antimicrobial level 0.03%
[12] = 10^6 cfu/g Salmonella, antimicrobial level 0.15%
[13] = 10^6 cfu/g Salmonella, antimicrobial level 0.3%
[14] = 10^6 cfu/g Salmonella, antimicrobial level 0.9%
[15] = 10^6 cfu/g Salmonella, antimicrobial level 1.5%
[16] = 10^6 cfu/g Salmonella, antimicrobial level 2.1%
[17] = 10^6 cfu/g Salmonella, antimicrobial level 3%
[18] = 10^6 cfu/g Salmonella, antimicrobial level […]

## CCC(=O)[O-].CCC(=O)[O-].[Ca+2] [Ca propionate liquid, Ca propionate]
[1]
  inhibition of Salmonella, clear zone around the kibbles: inhibited Salmonella
[1]; 1% solution
  Zone of Inhibition-Diameter, Mean: 9 mm
  Zone of Inhibition-Diameter, REP I Plate 1: 5 mm
  Zone of Inhibition-Diameter, REP I Plate 2: 16 mm
  Zone of Inhibition-Diameter, REP II Plate 1: 4 mm
  Zone of Inhibition-Diameter, REP II Plate 2: 9 mm
  Zone of Inhibition-Diameter, REP III Plate 1: 9 mm
  Zone of Inhibition-Diameter, REP III Plate 2: 9 mm
[1]; 2% solution
  Zone of Inhibition-Diameter, Mean: 17 mm
  Zone of Inhibition-Diameter, REP I Plate 1: 19 mm
  Zone of Inhibition-Diameter, REP I Plate 2: 14 mm
  Zone of Inhibition-Diameter, REP II Plate 1: 18 mm
  Zone of Inhibition-Diameter, REP II Plate 2: 19 mm
  Zone of Inhibition-Diameter, REP III Plate 1: 16 mm
  Zone of Inhibition-Diameter, REP III Plate 2: 14 mm
[1]; 3% solution
  Zone of Inhibition-Diameter, Mean: 21 mm
  Zone of Inhibition-Diameter, REP I Plate 1: 20 mm
  Zone of Inhibition-Diameter, REP I Plate 2: 15 mm
  Zone of Inhibition-Diameter, REP II Plate 1: 19 mm
  Zone of Inhibition-Diameter, REP II Plate 2: 25 mm
  Zone of Inhibition-Diameter, REP III Plate 1: 24 mm
  Zone of Inhibition-Diameter, REP III Plate 2: 25 mm

## CCCCCCCCCCCC(=O)N[C@@H](CCCN=C(N)N)C(=O)OCC [Lauric Arginate]
[2]; 10^3 and 10^6 cfu/g Salmonella
  MIC needed to inhibit Salmonella: 0.15%
[2]; [3]
  Salmonella growth or inhibition (MIC test): −
[2]; [4]
  Salmonella growth or inhibition (MIC test): −
[2]; [5]
  Salmonella growth or inhibition (MIC test): −
[2]; [6]
  Salmonella growth or inhibition (MIC test): −
[2]; [7]
  Salmonella growth or inhibition (MIC test): −
[2]; [8]
  Salmonella growth or inhibition (MIC test): −
[2]; [9]
  Salmonella growth or inhibition (MIC test): −
[2]; [10]
  Salmonella growth or inhibition (MIC test): −
[2]; [11]
  Salmonella growth or inhibition (MIC test): −
[2]; [12]
  Salmonella growth or inhibition (MIC test): −
[2]; [13]
  Salmonella growth or inhibition (MIC test): −
[2]; [14]
  Salmonella growth or inhibition (MIC test): −
[2]; [15]
  Salmonella growth or inhibition (MIC test): −
[2]; [16]
  Salmonella growth or inhibition (MIC test): −
[2]; [17]
  Salmonella growth or inhibition (MIC test): −
[2]; [18]
  Salmonella growth or inhibition (MIC test): −

## CCC(=O)O [Propionic Acid]
[2]; [3]
  Salmonella growth or inhibition (MIC test): +
[2]; [4]
  Salmonella growth or inhibition (MIC test): +
[2]; [5]
  Salmonella growth or inhibition (MIC test): +
[2]; [6]
  Salmonella growth or inhibition (MIC test): −
[2]; [7]
  Salmonella growth or inhibition (MIC test): −
[2]; [8]
  Salmonella growth or inhibition (MIC test): −
[2]; [9]
  Salmonella growth or inhibition (MIC test): −
[2]; [10]
  Salmonella growth or inhibition (MIC test): −
[2]; [11]
  Salmonella growth or inhibition (MIC test): +
[2]; [12]
  Salmonella growth or inhibition (MIC test): +
[2]; [13]
  Salmonella growth or inhibition (MIC test): −
[2]; [14]
  Salmonella growth or inhibition (MIC test): −
[2]; [15]
  Salmonella growth or inhibition (MIC test): −
[2]; [16]
  Salmonella growth or inhibition (MIC test): −
[2]; [17]
  Salmonella growth or inhibition (MIC test): −
[2]; [18]
  Salmonella growth or inhibition (MIC test): −
[1]
  inhibition of Salmonella, clear zone around the kibbles: inhibited Salmonella
[1]; 0.65%
  Zone of Inhibition-Diameter, Mean: 9 mm
  Zone of Inhibition-Diameter, REP I Plate 1: 8 mm
  Zone of Inhibition-Diameter, REP I Plate 2: 10 mm
  Zone of Inhibition-Diameter, REP II Plate 1: 5 mm
  Zone of Inhibition-Diameter, REP II Plate 2: 10 mm
  Zone of Inhibition-Diameter, REP III Plate 1: 13 mm
  Zone of Inhibition-Diameter, REP III Plate 2: 5 mm
[1]; 2%
  Zone of Inhibition-Diameter, Mean: 40 mm
  Zone of Inhibition-Diameter, REP I Plate 1: 47 mm
  Zone of Inhibition-Diameter, REP I Plate 2: 49 mm
  Zone of Inhibition-Diameter, REP II Plate 1: 47 mm
  Zone of Inhibition-Diameter, REP II Plate 2: 43 mm
  Zone of Inhibition-Diameter, REP III Plate 1: 30 mm
  Zone of Inhibition-Diameter, REP III Plate 2: 25 mm
[1]; 3%
  Zone of Inhibition-Diameter, Mean: 31 mm
  Zone of Inhibition-Diameter, REP I Plate 1: 30 mm
  Zone of Inhibition-Diameter, REP I Plate 2: 28 mm
  Zone of Inhibition-Diameter, REP II Plate 1: 31 mm
  Zone of Inhibition-Diameter, REP II Plate 2: 34 mm
  Zone of Inhibition-Diameter, REP III Plate 1: 33 mm
  Zone of Inhibition-Diameter, REP III Plate 2: 30 mm
[1]; 3% (in CWG)
  Zone of Inhibition-Diameter, Mean: 31 mm
  Zone of Inhibition-Diameter, REP I Plate 1: 34 mm
  Zone of Inhibition-Diameter, REP I Plate 2: 34 mm
  Zone of Inhibition-Diameter, REP II Plate 1: 28 mm
  Zone of Inhibition-Diameter, REP II Plate 2: 31 mm
  Zone of Inhibition-Diameter, REP III Plate 1: 28 mm
  Zone of Inhibition-Diameter, REP III Plate 2: 31 mm
[1]; […]
  Zone of Inhibition-Diameter, Mean: 21 mm
  Zone of Inhibition-Diameter, REP I Plate 1: 25 mm
  Zone of Inhibition-Diameter, REP I Plate 2: 18 mm
  Zone of Inhibition-Diameter, REP II Plate 1: 25 mm
  Zone of Inhibition-Diameter, REP II Plate 2: 25 mm
  Zone of Inhibition-Diameter, REP III Plate 1: 13 mm
  Zone of Inhibition-Diameter, REP III Plate 2: 20 mm
Salmonella; 1, 2 and 3% topically applied
  reduction of Salmonella compared with untreated control: reduced Salmonella by two log cycles more than an untreated control
Salmonella; 2 and 3% topical/preconditioner
  reduction of Salmonella compared with untreated control: reduced Salmonella by two log cycles more than an untreated control
Salmonella; 3% in preconditioner
  reduction of Salmonella compared with untreated control: reduced Salmonella by two log cycles more than an untreated control
Salmonella; concentrations of 1%, 2%, and 3%
  efficacy against Salmonella at points of processing: efficacious against Salmonella at all points of processing
Salmonella; finished product contaminated after enrober, 2% and 3% added topical/preconditioner
  effect on Salmonella: positive effect
Salmonella; finished product contaminated after enrober, topical application of 1%, 2% and 3%
  effect on Salmonella: positive effect
Salmonella; product coated and inoculated (finished product contaminated after enrober), 3% in the preconditioner
  effect on Salmonella: some immediate effect
Salmonella; product simulating entry to the airlift, evaporative cooling, dryer after surface cooling, 1%, 2%, and 3%
  reduction of Salmonella compared with control: Reduction of two logs more than control
